{"source": "patent US7084239B1", "about": "“Cancer peptides of NY-ESO-1/CAG-3” (The United States of America as represented by the …, priority 1997, dated 2006)", "test_system": "TIL1244", "assay": "T cell recognition of peptide-pulsed 586EBV B cells by TIL1244", "type": "cell-based, human", "conditions": "peptide pulsed onto 586EBV B cells (FIG. 6)", "source_text": "FIGS. 6A–6H. CTL clones 2 and 14 recognize the NY-ESO-1 gene, but not the ESO10-53 peptide derived from the NY-ESO-1 protein. CTL clones 2, 14 and 5 recognized NY-ESO-1 when cotransfected with HLA-A31 cDNA into COS-7 (FIG. 6A, C, E and G). TIL1244, which recognized TRP-2 But not NY-ESO-1, was used as a specificity control. FIGS. 6B, D, F and H. CTL clones 2, 5, 14, and TIL1244 recognized 586mel. […] TIL1244 recognized the TRP197-205 peptide derived from TRP-2, 586EBV B cells alone or pulsed with the ORF3P peptide from an alternative reading frame of TRP1 were negative controls. 397mel is an HLA-A31-negative, NY-ESO-1-positive tumor line.\nDNA transfection and GM-CSF assay were done as previously described (Wang, R. F., P. F. Robbins, Y. Kawakami, X. Q. Kang, and S. A. Rosenberg, 1995, J. Exp. Med. 181:799–804). Briefly, […] of DNA carrying a different fragment and 50 ng of the HLA-A31 DNA were mixed with 2 μl of lipofectamine in 100 μl of serum-free DMEM for 15–45 min. The DNA/lipofectamine mixture was then added to the COS-7 (5×10^4) cells and incubated overnight. The following day, cells were washed twice with DMEM medium. […] After 18–24 h incubation, 100 μl of supernatant was collected and GM-CSF was measured in a standard ELISA assay (R+D Systems, Minneapolis, Minn.). […]"}
{"substance": "TRP197-205: peptide derived from TRP-2, recognized by TIL1244; specificity control (LLGPGRPYR; UniProt P40126 197-205, looked up, fragment)", "values": [{"measurement": "Recognition by TIL1244, in words", "value": "recognized"}]}
